Measured values as given in patent US5583000A, “Protease-binding compounds and methods of use” (priority 1993, dated 1996).
Converted amounts (≈) assume the structure as drawn. Where two headings read alike, the source gives them in different places.

Key:
[1] = target: T1, HIV-2 PR (Human immunodeficiency virus type 2 subtype A, UniProt P04584); assay: biochemical; format: biochemical; details: for KI (inactivation): inhibitor concentration resulting in half-maximal inactivation, pH 8.0, 25° C., read-out: kinact (μM) HIV-2; for kinact: pH 8, maximum inactivation rate, read-out: Vinact (min^-1 × 10^3) HIV-2 (converted)
T1 construct: HIV-2 PR (at a final concentration of 30 μg/mL); made in house

[2] = target: HIV-1 PR C95M (Human immunodeficiency virus type 1 group M subtype B, UniProt P03369, C585M); assay: Protection experiment, incorporation of radio-labelled UCSF84; format: binding; details: preincubation 10 μM, then radio-labelled UCSF84
[3] = target: T2, HIV-1 PR (Human immunodeficiency virus type 1 group M subtype B, UniProt P03369); assay: biochemical; format: binding; details: 1 h, pH 8; preincubation 10 μM one hour, then radio-labelled UCSF84 200 μM; read-out: blocking of radioactivity incorporation to HIV-1 PR
[4] = target: HIV-1 PR Q7K (Human immunodeficiency virus type 1 group M subtype B, UniProt P03369, Q497K); format: biochemical
[5] = target: T1, HIV-2 PR; assay: Protection experiment, incorporation of radio-labelled UCSF84; format: binding
[6] = target: HIV-1 protease (Human immunodeficiency virus type 1 group M subtype B, UniProt P03369); assay: biochemical
[7] = in vitro
[8] = target: T2, HIV-1 PR; details: pH 8
Protocol: Once full inhibition was achieved, the enzyme was isolated by reverse phase HPLC on a C3 -Zorbax Protein Plus column (4.6 mm×25 cm), using a 100-minute linear gradient from 5 to 65% acetonitrile in 0.1% TFA. The flow rate was 1 mL/min and the eluent was monitored at 220 nm. The two major components of the isolated sample were concentrated under vacuum, dissolved in a small volume of 50% acetonitrile and 1% acetic acid, and their molecular weights determined by electrospray mass spectrometry. The spectra were recorded on a VG EIectrospray. Mass Spectrometer Model Bio-Q.

[9] = in vitro; details: african green monkey, cos-7 cells
Protocol: MTT cell viability assay. This is a quantitative colorimetric assay for mammalian cell survival and proliferation. Cells were seeded in 96 well plates and grown to near 50% confluency. A serial dilution (1 to 500 μM) of each compound was then prepared in culture media and added (250 μL/well) in duplicate. All culture media was adjusted to a final concentration of 1.0% DMSO (volume basis). The cells were allowed to grow for either 4 hours or 24 hours. The culture media were then removed, and the cells were washed with phosphate buffered saline (PBS) before 50 μL of MTT solution (1 mg/mL in PBS) was added. After incubating for 4 hours at 37° C., the reaction was quenched by adding 160 μL of acidified isopropanol and mixing to dissolve purple crystals. The absorbance was determined within 30 minutes at 570 nm on an ELISA plate reader.
The cytotoxic effect of the inhibitors was determined using the MTT stain viability assay.

[10] = physchem

T1 sequence (P04584 514-612 limits assumed): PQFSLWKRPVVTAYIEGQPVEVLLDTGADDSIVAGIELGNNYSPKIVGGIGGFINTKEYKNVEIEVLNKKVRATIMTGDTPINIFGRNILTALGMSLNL

| SMILES | KI (inactivation) [1] | kinact [1] | incorporation after preincubation of the enzyme [2] | inhibition at 10 µM [3] | KI (inactivation) ([4]; inhibitor concentration resulting in half-maximal inactivation; pH 8.0, 25° C.; read-out: kinact (μM) HIV-1) | radioactivity incorporation after preincubation [5] | HIV-1 Protease Therapeutic Index (LD50 /IC50) [6] | IC50 ([6]; HIV-1 Protease IC50 (μM) 1M NaCl) | CC50 at 6 h [7] | molecules of inhibitor bound per HIV-1 protease (molecular weight 11,649) [8] | CC50 at 4 h [9] | CC50 at 24 h [9] | solubility [10] | KI (inactivation) ([4]; read-out: kinact (μM) HIV-1; inhibitor concentration resulting in half-maximal inactivation; pH 8.0, 25° C.) |
| --- | --- | --- | --- | --- | --- | --- | --- | --- | --- | --- | --- | --- | --- | --- |
| O=[N+]([O-])c1ccc(OCC2CO2)cc1 (stereo not shown) [EPNP, 1,2-epoxy-3-(p-nitrophenoxy)-propane, reference compound] | 6700 ± 600 µM | 0.0482 min⁻¹ | sharply reduced | ~50% | 9900 ± 1000 µM | almost complete elimination of radioactivity incorporation | – | – | – | – | – | – | – | – |
| O=C(C#CCN1CCC(O)(c2ccc(Cl)cc2)CC1)c1cccc(-c2ccccc2)c1 [UCSF142, 4-(4'-(4"-chlorophenyl)-4'-hydroxypiperidinyl)-1-m-biphenylbut-2-yn-1-one] | 8.6 ± 1 µM | 0.0097 min⁻¹ | – | – | – | – | 0.56 | 63 µM | 35 µM | two molecules | 35 µM | < 5 µM | 100 µM (≈ 43 µg/mL) | 10.7 ± 1.3 µM |
